Results published in patent publication US20060069132A1, “Azolecarboxamide herbicides” (priority 2004, published 2006).

Experiments:
wheat = experiment: Test B postemergence herbicide test; type: in vivo, Triticum aestivum; set-up: key to Wheat plant response rating: 0 = no effect, 100 = complete control; settings: postemergence, visual rating, scale 0 (no effect) to 100 (complete control)
How it was run: (§1)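 Scale 0–100: zero equals no visible effect, 100 complete control, judged by eye relative to controls. Timing: 13 to 15 days in greenhouse post-treatment. Growth stage at spraying: two leaves (paddy) or one to four leaves, 2–18 cm (postemergence).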

rice [1] = experiment: Test B flooded paddy test; type: in vivo, Oryza sativa; settings: 1000 g ai/ha, visual rating, scale 0 to 100 (0 no effect, 100 complete control), 13 to 15 days
How it was run: (§2)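 Greenhouse test; postemergence application to plants at 1–4 leaves (2–18 cm); paddy species at 2 leaves; evaluated visually vs controls at 13–15 days; scale 0–100 (100 = complete control).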

barnyardgrass [2] = experiment: Test A pre-/postemergence herbicide test; type: in vivo, Echinochloa crus-galli
How it was run: (§3)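 Seeds sown in sandy loam received a preemergence directed soil spray of compound in non-phytotoxic solvent with surfactant; postemergence plants (2–10 cm, one- to two-leaf stage) were sprayed to runoff at the same time. After ~10 days in greenhouse, injury was rated visually versus untreated controls (0 = no effect, 100 = complete control).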

barnyardgrass [3] = experiment: Test B flooded paddy test; type: in vivo, Echinochloa crus-galli; settings: 1000 g ai/ha, visual rating, scale 0 to 100 (0 no effect, 100 complete control), 13 to 15 days
How it was run: as §2

redroot pigweed = experiment: Test A pre-/postemergence herbicide test; type: in vivo, Amaranthus retroflexus
How it was run: as §3

large crabgrass [4] = experiment: Test A pre-/postemergence herbicide test; type: in vivo, Digitaria sanguinalis
How it was run: as §3

blackgrass = experiment: Test B postemergence herbicide test; type: in vivo, Alopecurus myosuroides; settings: postemergence, visual rating, scale 0 (no effect) to 100 (complete control)
How it was run: as §2

pigweed = experiment: Test B pre-/postemergence herbicide test; type: in vivo, Amaranthus retroflexus; settings: for Pigweed plant response rating: postemergence, visual rating, scale 0 (no effect) to 100 (complete control)
How it was run: (§4)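 Greenhouse pot assay with simultaneous preemergence (treated seed) and postemergence (2–18 cm seedlings) applications of surfactant-containing, non-phytotoxic solvent formulations. Response scored visually 13–15 days later on a 0–100 scale, 100 meaning complete control.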

barnyardgrass [5] = experiment: Test B pre-/postemergence herbicide test; type: in vivo, Echinochloa crus-galli; settings: for Barnyardgrass plant response rating: postemergence, visual rating, scale 0 (no effect) to 100 (complete control)
How it was run: as §4

[6] = system: small flower umbrella sedge; experiment: Test B flooded paddy test; type: in vivo, Cyperus difformis; settings: 1000 g ai/ha, visual rating, scale 0 to 100 (0 no effect, 100 complete control), 13 to 15 days
How it was run: as §2

lambsquarters = experiment: Test B pre-/postemergence herbicide test; type: in vivo, Chenopodium album; settings: for Lambsquarters plant response rating: postemergence, visual rating, scale 0 (no effect) to 100 (complete control)
How it was run: as §4

wild oat = experiment: Test B postemergence herbicide test; type: in vivo, Avena fatua; settings: postemergence, visual rating, scale 0 (no effect) to 100 (complete control)
How it was run: as §1

cocklebur = experiment: Test B pre-/postemergence herbicide test; type: in vivo, Xanthium strumarium; settings: for Cocklebur plant response rating: postemergence, visual rating, scale 0 (no effect) to 100 (complete control)
How it was run: as §4

ducksalad = experiment: Test B flooded paddy test; type: in vivo, Heteranthera limosa; settings: 1000 g ai/ha, visual rating, scale 0 to 100 (0 no effect, 100 complete control), 13 to 15 days
How it was run: as §2

giant foxtail [7] = experiment: Test B pre-/postemergence herbicide test; type: in vivo, Setaria faberi; settings: for Foxtail, Giant plant response rating: postemergence, visual rating, scale 0 (no effect) to 100 (complete control)
How it was run: as §4

giant foxtail [8] = experiment: Test A pre-/postemergence herbicide test; type: in vivo, Setaria faberi
How it was run: as §3

velvetleaf [9] = experiment: Test B pre-/postemergence herbicide test; type: in vivo, Abutilon theophrasti; settings: for Velvetleaf plant response rating: postemergence, visual rating, scale 0 (no effect) to 100 (complete control)
How it was run: as §4

velvetleaf [10] = experiment: Test A pre-/postemergence herbicide test; type: in vivo, Abutilon theophrasti
How it was run: as §3

morningglory [11] = experiment: Test A pre-/postemergence herbicide test; type: in vivo, Ipomoea spp.
How it was run: as §3

rice [12] = experiment: Test B pre-/postemergence herbicide test; type: in vivo, Oryza sativa; settings: preemergence
How it was run: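 Species tested were Echinochloa crus-galli, Ipomoea coccinea, Xanthium strumarium and Oryza sativa, treated both before emergence and at the 1- to 4-leaf stage; rice and barnyardgrass were also tested under flooding at 2 leaves. Greenhouse incubation lasted 13–15 days before visual 0–100 scoring.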

large crabgrass [13] = experiment: Test B pre-/postemergence herbicide test; type: in vivo, Digitaria sanguinalis; settings: for Crabgrass, Large plant response rating: postemergence, visual rating, scale 0 (no effect) to 100 (complete control)
How it was run: as §4

Surinam grass = experiment: Test B pre-/postemergence herbicide test; type: in vivo, Urochloa decumbens; settings: for Surinam Grass plant response rating: postemergence, visual rating, scale 0 (no effect) to 100 (complete control)
How it was run: as §4

morningglory [14] = experiment: Test B pre-/postemergence herbicide test; type: in vivo, Ipomoea coccinea; settings: for Morningglory plant response rating: postemergence, visual rating, scale 0 (no effect) to 100 (complete control)
How it was run: as §4

corn = experiment: Test B pre-/postemergence herbicide test; type: in vivo, Zea mays; settings: for Corn plant response rating: postemergence, visual rating, scale 0 (no effect) to 100 (complete control)
How it was run: as §4

[15] = Postemergence, 500 g ai/ha, 0 to 100 scale, 0 no effect, 100 complete control
[16] = Postemergence, 2000 g ai/ha, 0 to 100 scale, 0 no effect, 100 complete control
[17] = Preemergence, 2000 g ai/ha, visual rating, 0 to 100 scale (0 no effect, 100 complete control)
[18] = preemergence, 500 g ai/ha, visual injury, 0 to 100 scale (0 no effect, 100 complete control)
[19] = 125 g ai/ha, 0 = no effect, 100 = complete control, preemergence
[20] = 500 g ai/ha, visual rating 0-100, 0 no effect, 100 complete control, preemergence

Structure (SMILES): COC(=O)c1cccc(NC(=O)c2sc(C(C)(C)C)nc2C)c1 [Compound 197]
- Wheat plant response rating (wheat; 125 g ai/ha): 0
- Wheat plant response rating (wheat; 500 g ai/ha): 10
- Rice plant response rating (rice [1]): 0
- Barnyardgrass plant response rating (barnyardgrass [2]; [15]): 10
- Plant response rating, Barnyardgrass (barnyardgrass [2]; [16]): 0
- Barnyardgrass plant response rating (barnyardgrass [2]; [17]): 0
- Barnyardgrass plant response rating (barnyardgrass [2]; [18]): 0
- Barnyardgrass plant response rating (barnyardgrass [3]): 0
- Pigweed plant response rating (redroot pigweed; [15]): 0
- Plant response rating, Pigweed (redroot pigweed; [16]): 5
- Pigweed plant response rating (redroot pigweed; [17]): 0
- Pigweed plant response rating (redroot pigweed; [18]): 0
- Crabgrass, Large plant response rating (large crabgrass [4]; [15]): 5
- Plant response rating, Crabgrass, Large (large crabgrass [4]; [16]): 10
- Crabgrass, Large plant response rating (large crabgrass [4]; [17]): 0
- Crabgrass, Large plant response rating (large crabgrass [4]; [18]): 0
- Blackgrass plant response rating (blackgrass; 125 g ai/ha): 0
- Blackgrass plant response rating (blackgrass; 500 g ai/ha): 0
- Pigweed plant response rating (0 to 100 scale) (pigweed; [19]): 0
- Plant response rating, Pigweed (pigweed; [20]): 0
- Pigweed plant response rating (pigweed; 125 g ai/ha): 0
- Pigweed plant response rating (pigweed; 500 g ai/ha): 10
- Barnyardgrass plant response rating (0 to 100 scale) (barnyardgrass [5]; [19]): 0
- Plant response rating, Barnyardgrass (barnyardgrass [5]; [20]): 10
- Barnyardgrass plant response rating (barnyardgrass [5]; 125 g ai/ha): 0
- Barnyardgrass plant response rating (barnyardgrass [5]; 500 g ai/ha): 10
- Sedge, Umbrella plant response rating [6]: 0
- Lambsquarters plant response rating (0 to 100 scale) (lambsquarters; [19]): 0
- Plant response rating, Lambsquarters (lambsquarters; [20]): 0
- Lambsquarters plant response rating (lambsquarters; 125 g ai/ha): 0
- Lambsquarters plant response rating (lambsquarters; 500 g ai/ha): 0
- Oat, Wild plant response rating (wild oat; 125 g ai/ha): 10
- Oat, Wild plant response rating (wild oat; 500 g ai/ha): 30
- Cocklebur plant response rating (0 to 100 scale) (cocklebur; [19]): 0
- Plant response rating, Cocklebur (cocklebur; [20]): 0
- Cocklebur plant response rating (cocklebur; 125 g ai/ha): 0
- Cocklebur plant response rating (cocklebur; 500 g ai/ha): 10
- Ducksalad plant response rating (ducksalad): 0
- Foxtail, Giant plant response rating (0 to 100 scale) (giant foxtail [7]; [19]): 0
- Plant response rating, Foxtail, Giant (giant foxtail [7]; [20]): 0
- Foxtail, Giant plant response rating (giant foxtail [7]; 125 g ai/ha): 0
- Foxtail, Giant plant response rating (giant foxtail [7]; 500 g ai/ha): 0
- Foxtail, Giant plant response rating (giant foxtail [8]; [15]): 0
- Plant response rating, Foxtail, Giant (giant foxtail [8]; [16]): 5
- Foxtail, Giant plant response rating (giant foxtail [8]; [17]): 0
- Foxtail, Giant plant response rating (giant foxtail [8]; [18]): 0
- Velvetleaf plant response rating (0 to 100 scale) (velvetleaf [9]; [19]): 0
- Plant response rating, Velvetleaf (velvetleaf [9]; [20]): 0
- Velvetleaf plant response rating (velvetleaf [9]; 125 g ai/ha): 0
- Velvetleaf plant response rating (velvetleaf [9]; 500 g ai/ha): 20
- Velvetleaf plant response rating (velvetleaf [10]; [15]): 5
- Plant response rating, Velvetleaf (velvetleaf [10]; [16]): 5
- Velvetleaf plant response rating (velvetleaf [10]; [17]): 10
- Velvetleaf plant response rating (velvetleaf [10]; [18]): 0
- Morningglory plant response rating (morningglory [11]; [15]): 0
- Plant response rating, Morningglory (morningglory [11]; [16]): 0
- Morningglory plant response rating (morningglory [11]; [17]): 5
- Morningglory plant response rating (morningglory [11]; [18]): 0
- Rice plant response rating (0 to 100 scale) (rice [12]; 125 g ai/ha, 0 = no effect, 100 = complete control): 0
- Plant response rating, Rice (rice [12]; 500 g ai/ha, visual rating 0-100, 0 no effect, 100 complete control): 0
- Crabgrass, Large plant response rating (0 to 100 scale) (large crabgrass [13]; [19]): 0
- Plant response rating, Crabgrass, Large (large crabgrass [13]; [20]): 0
- Crabgrass, Large plant response rating (large crabgrass [13]; 125 g ai/ha): 0
- Crabgrass, Large plant response rating (large crabgrass [13]; 500 g ai/ha): 0
- Surinam Grass plant response rating (0 to 100 scale) (Surinam grass; [19]): 0
- Plant response rating, Surinam Grass (Surinam grass; [20]): 20
- Surinam Grass plant response rating (Surinam grass; 125 g ai/ha): 10
- Surinam Grass plant response rating (Surinam grass; 500 g ai/ha): 20
- Morningglory plant response rating (0 to 100 scale) (morningglory [14]; [19]): 0
- Plant response rating, Morningglory (morningglory [14]; [20]): 0
- Morningglory plant response rating (morningglory [14]; 125 g ai/ha): 0
- Morningglory plant response rating (morningglory [14]; 500 g ai/ha): 0
- Corn plant response rating (0 to 100 scale) (corn; [19]): 0
- Plant response rating, Corn (corn; [20]): 0
- Corn plant response rating (corn; 125 g ai/ha): 10
- Corn plant response rating (corn; 500 g ai/ha): 20
